# According to patent US20230172206A1 (BASF SE, priority 2020, published 2023):
# Legend:
# [1] = tested on: Phakopsora pachyrhizi (F129L); experiment: Protective control of soybean rust on soybeans (PHAKPA P2); format: in vivo; conditions: for % PHAKPA (F129L) Disease level P2 at 4 ppm: protective P2, 4 ppm; for % PHAKPA (F129L) Disease level P2 at 16 ppm: protective P2, 16 ppm
# [2] = tested on: Phakopsora pachyrhizi (F129L); experiment: Protective control of soybean rust on soybeans (PHAKPA P6); format: in vivo; conditions: for % PHAKPA (F129L) Disease level P6 at 4 ppm: protective P6, 4 ppm; for % PHAKPA (F129L) Disease level P6 at 16 ppm: protective P6, 16 ppm
SMILES,% PHAKPA (F129L) Disease level P2 at 4 ppm ([1]; soybean rust F129L isolate) [%],% PHAKPA (F129L) Disease level P2 at 16 ppm ([1]; soybean rust F129L isolate) [%],% PHAKPA (F129L) Disease level P6 at 4 ppm ([2]; soybean rust F129L isolate) [%],% PHAKPA (F129L) Disease level P6 at 16 ppm ([2]; soybean rust F129L isolate) [%],% PHAKPA (F129L) Disease level P2 at 4 ppm ([1]; F129L isolate) [%],% PHAKPA (F129L) Disease level P2 at 16 ppm ([1]; F129L isolate) [%],% PHAKPA (F129L) Disease level P6 at 4 ppm ([2]; F129L isolate) [%],% PHAKPA (F129L) Disease level P6 at 16 ppm ([2]; F129L isolate) [%]
CO/N=C(/C(=O)OC)c1cccc(C)c1CO/N=C(\C)c1ccc(Cl)cc1C(F)(F)F [compound 304],53,28,100,37,–,–,–,–
CNC(=O)/C(=N/OC)c1cccc(C)c1CO/N=C(\C)c1ccc(OC)cc1C(F)(F)F [compound 324],2,1,12,0,–,–,–,–
CNC(=O)/C(=N/OC)c1cccc(C)c1CO/N=C(\C)c1c(F)cccc1OC(F)(F)F [compound 325],24,4,22,1,–,–,–,–
CNC(=O)/C(=N/OC)c1cccc(C)c1CO/N=C(\C)c1cccc(F)c1C(F)(F)F [compound 326],25,0,30,1,–,–,–,–
CNC(=O)/C(=N/OC)c1cccc(C)c1CO/N=C(\C)c1ccc(C)cc1C(F)(F)F [compound 327],23,3,48,4,–,–,–,–
CO/N=C(/C(=O)OC)c1cccc(C)c1CO/N=C(\C)c1ccc(OC)cc1C(F)(F)F [compound 328],33,8,23,5,–,–,–,–
CNC(=O)/C(=N/OC)c1cccc(C)c1CO/N=C(\C)c1ccccc1OC1CC1 [compound 329],100,53,100,73,–,–,–,–
CO/N=C(/C(=O)OC)c1cccc(C)c1CO/N=C(\C)c1cccc(F)c1C(F)(F)F [compound 330],83,24,93,17,–,–,–,–
CO/N=C(/C(=O)OC)c1cccc(C)c1CO/N=C(\C)c1ccc(Oc2ccc(Cl)cc2)cc1C(F)(F)F [compound 335],77,53,80,25,–,–,–,–
CNC(=O)/C(=N/OC)c1cccc(C)c1CO/N=C(\C)c1ccc(Oc2ccc(Cl)cc2)cc1C(F)(F)F [compound 336],63,20,50,17,–,–,–,–
CNC(=O)/C(=N/OC)c1cccc(C)c1CO/N=C(\C)c1ccc(OC)cc1OC(F)(F)F [compound 337],9,0,13,1,–,–,–,–
CNC(=O)/C(=N/OC)c1cccc(C)c1CO/N=C(\C)c1ccc(C)cc1OC(F)(F)F [compound 340],23,4,42,7,–,–,–,–
CNC(=O)/C(=N/OC)c1cccc(C)c1CO/N=C(\C)c1c(F)cc(F)cc1OC(F)(F)F [compound 344],6,0,16,0,–,–,–,–
CNC(=O)/C(=N/OC)c1cccc(C)c1CO/N=C(\C)c1c(F)cccc1C(F)(F)F [compound 345],22,1,32,1,–,–,–,–
CNC(=O)/C(=N/OC)c1cccc(C)c1CO/N=C(\C)c1c(F)ccc(F)c1OC(F)(F)F [compound 346],4,0,5,0,–,–,–,–
CNC(=O)/C(=N/OC)c1cccc(C)c1CO/N=C(\C)c1ccc(OC(F)(F)F)cc1OC(F)(F)F [compound 349],97,50,97,35,–,–,–,–
CNC(=O)/C(=N/OC)c1cccc(C)c1CO/N=C(\C)c1cccc(F)c1OC(F)(F)F [compound 354],17,2,21,4,–,–,–,–
CNC(=O)/C(=N/OC)c1cccc(C)c1CO/N=C(\C)c1c(F)cc(Br)cc1OC(F)(F)F [compound 355],34,7,48,4,–,–,–,–

SMILES,% PHAKPA (F129L) Disease level P2 at 4 ppm ([1]; soybean rust F129L isolate) [%],% PHAKPA (F129L) Disease level P2 at 16 ppm ([1]; soybean rust F129L isolate) [%],% PHAKPA (F129L) Disease level P6 at 4 ppm ([2]; soybean rust F129L isolate) [%],% PHAKPA (F129L) Disease level P6 at 16 ppm ([2]; soybean rust F129L isolate) [%],% PHAKPA (F129L) Disease level P2 at 4 ppm ([1]; F129L isolate) [%],% PHAKPA (F129L) Disease level P2 at 16 ppm ([1]; F129L isolate) [%],% PHAKPA (F129L) Disease level P6 at 4 ppm ([2]; F129L isolate) [%],% PHAKPA (F129L) Disease level P6 at 16 ppm ([2]; F129L isolate) [%]
CNC(=O)/C(=N/OC)c1cccc(C)c1CO/N=C(\C)c1c(F)cc(F)cc1C(F)(F)F [compound 357],13,1,18,0,–,–,–,–
CNC(=O)/C(=N/OC)c1cccc(C)c1CO/N=C(\C)c1c(F)cc(Br)cc1C(F)(F)F [compound 358],77,17,83,18,–,–,–,–
CNC(=O)/C(=N/OC)c1cccc(C)c1CO/N=C(\C)c1c(F)ccc(F)c1C(F)(F)F [compound 359],100,37,100,43,–,–,–,–
CO/N=C(/C(=O)OC)c1cccc(C)c1CO/N=C(\C)c1c(F)cc(F)cc1C(F)(F)F [compound 360],53,9,80,5,–,–,–,–
CO/N=C(/C(=O)OC)c1cccc(C)c1CO/N=C(\C)c1c(F)cc(F)cc1OC(F)(F)F [compound 361],80,18,88,31,–,–,–,–
CNC(=O)/C(=N/OC)c1cccc(C)c1CO/N=C(\C)c1ccc(OC(F)(F)F)cc1C(F)(F)F [compound 363],29,1,25,2,–,–,–,–
CO/N=C(/C(=O)OC)c1cccc(C)c1CO/N=C(\C)c1c(F)cccc1C(F)(F)F [compound 365],77,15,97,43,–,–,–,–
CO/N=C(/C(=O)OC)c1cccc(C)c1CO/N=C(\C)c1c(F)ccc(F)c1OC(F)(F)F [compound 366],53,13,83,12,–,–,–,–
CO/N=C(/C(=O)OC)c1cccc(C)c1CO/N=C(\C)c1c(F)cc(Br)cc1C(F)(F)F [compound 368],83,47,90,73,–,–,–,–
CNC(=O)/C(=N/OC)c1cccc(C)c1CO/N=C(\C)c1ccccc1C(C)(F)F [compound 372],85,26,85,16,–,–,–,–
CO/N=C(/C(=O)OC)c1cccc(C)c1CO/N=C(\C)c1ccc(OC)cc1OC(F)(F)F [compound 373],77,27,100,38,–,–,–,–
CNC(=O)/C(=N/OC)c1cccc(C)c1CO/N=C(\C)c1ccc(Cl)cc1OC(F)(F)F [compound 375],47,8,40,6,–,–,–,–
CNC(=O)/C(=N/OC)c1cccc(C)c1CO/N=C(\C)c1ccc(F)cc1OC(F)(F)F [compound 378],18,1,17,1,–,–,–,–
CNC(=O)/C(=N/OC)c1cccc(C)c1CO/N=C(\CC(F)(F)F)c1ccccc1 [compound 380],–,–,–,–,53,5,60,12
CCC/C(=N\OCc1c(C)cccc1/C(=N\OC)C(=O)OC)c1ccccc1 [compound 387],–,–,–,–,60,30,80,47
CCC/C(=N\OCc1c(C)cccc1/C(=N\OC)C(=O)NC)c1ccccc1 [compound 388],–,–,–,–,1,0,3,0
CNC(=O)/C(=N/OC)c1cccc(C)c1CO/N=C(/c1ccccc1)C(C)C [compound 389],–,–,–,–,28,4,43,3
